Experimental data published in publication PMC10051292, “Neoprzewaquinone A Inhibits Breast Cancer Cell Migration and Promotes Smooth Muscle Relaxation by Targeting PIM1 to Block ROCK2/STAT3 Pathway” (International Journal of Molecular Sciences, 2023).

Target: PIM1 (Homo sapiens, UniProt P11309)
Test: ADP-Glo in vitro kinase assay; supported by CETSA western blot in MDA-MB-231 (about […] °C stabilization)
Type: biochemical

Sequence of PIM1 (P11309 whole entry): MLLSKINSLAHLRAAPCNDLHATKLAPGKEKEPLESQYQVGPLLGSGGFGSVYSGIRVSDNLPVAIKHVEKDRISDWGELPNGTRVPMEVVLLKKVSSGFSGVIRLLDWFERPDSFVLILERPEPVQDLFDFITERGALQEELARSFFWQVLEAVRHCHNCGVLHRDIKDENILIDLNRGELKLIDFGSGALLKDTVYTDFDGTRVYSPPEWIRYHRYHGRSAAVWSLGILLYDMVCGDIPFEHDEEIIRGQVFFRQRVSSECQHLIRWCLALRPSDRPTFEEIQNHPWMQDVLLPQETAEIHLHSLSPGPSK

IC50: 560 nM
SMILES: C=C1CCCc2c(ccc3c2C(=O)C(=O)c2c(C)coc2-3)/C(C)=C/CCc2c1ccc1c2C(=O)C(=O)c2c(C)coc2-1 [NEO, Neoprzewaquinone A]
